Results: paper PMC6594577, “Identifying small molecule probes of ENTPD5 through high throughput screening” (PLoS ONE, 2019)

Assays:
[1] = molecular target: T1, B.ENTPD5 (human ENTPD5 44–428) (Homo sapiens, UniProt O75356); experiment: coupled enzyme (ENTPD5/UMPK/luciferase) HTS assay; format: biochemical; details: for inhibition at 20 µM: HTS, 20 μM compound, duplicate, read-out: Percent ENTPD5 inhibition; for IC50: compounds at 5, 10, 20 and 40 μM, coupled enzyme HTS assay
T1 construct: bacterial codon-optimized human ENTPD5 44–428 (B.ENTPD5); His8 (C); made in house; host or cells: E. coli C41(DE3)
T1 sequence (O75356 44-428): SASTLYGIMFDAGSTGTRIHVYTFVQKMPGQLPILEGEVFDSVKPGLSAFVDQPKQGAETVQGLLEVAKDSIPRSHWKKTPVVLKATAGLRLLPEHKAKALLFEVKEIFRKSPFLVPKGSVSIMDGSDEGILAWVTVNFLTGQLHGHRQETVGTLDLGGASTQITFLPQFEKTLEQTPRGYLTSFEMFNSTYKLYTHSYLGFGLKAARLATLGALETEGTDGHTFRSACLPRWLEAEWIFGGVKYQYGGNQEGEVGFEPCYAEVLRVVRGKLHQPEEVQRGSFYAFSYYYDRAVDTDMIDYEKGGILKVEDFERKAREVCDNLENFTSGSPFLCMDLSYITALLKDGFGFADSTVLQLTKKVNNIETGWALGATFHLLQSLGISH
Method: Stocks of purified B.ENTPD5, UMPK, and luciferase were diluted to 0.4 mg/mL, 1.2 mg/mL, 4.5 mg/mL, respectively, in 250 mM NaCl, 25 mM Tris-HCl pH 8.5, 5 mM MgCl2, 0.1 mg/mL BSA, and 5 mM DTT and flash frozen. To prepare enzyme mix solution for HTS, ENTPD5 (1 ng/μL final concentration) and UMPK (3.5 ng/μL) were diluted in HTS buffer (250 mM NaCl, 25 mM Tris-HCl pH 7.7, 5 mM MgCl2, 5 mM DTT, 0.1 mg/mL BSA, and 0.01% Triton X-100). An ENTPD5 null mix was made as above without ENTPD5 to provide maximal signal mimicking 100% inhibition. Substrate mix solution consisted of ATP (625 μM) and UDP (150 μM) in HTS buffer. Developer solution consisted of Luciferase (50 ng/μL) and D-luciferin (1.6 mM) in HTS buffer. All solutions were stored at 4°C, and equilibrated to room temperature prior to screening. All steps of ENTPD5 HTS were performed at room temperature in duplicate 384-well plates. For each run, 40 μL of enzyme solution (or ENTPD5 null mix) was added to each well of a 384 well plate. 0.1 μL of 10 mM compound (in 100% DMSO) from a 25,000 subset of the Chembridge DiverSet library or DMSO alone were added to wells by pin tool (V&P Scientific). Following a 10-minute incubation, the reaction was initiated with 10 μL of substrate mix (final concentrations: 40 ng/50 μL ENTPD5, 140 ng/50 μL UMPK, 125 μM ATP, 30 μM UDP, 20 μM test compound). Assay plates were shaken at 1500 rpm for 30 seconds and then incubated for 1h. Following incubation, 10 μL of developer solution was added to each well (final concentrations: 500 ng/60 μL luciferase, 266 μM D-luciferin). The plate was shaken for 30 seconds and incubated for 30 minutes. Luminescence readings were performed on a Tecan Infinite […] with automatic attenuation settings and 100 ms integration time. Hits and hit analogs were (re)purchased from Chembridge for SAR studies. Compounds were assayed at 5 μM, 10 μM, 20 μM, and 40 μM using the assay described above. To discover ENTPD5 inhibitors, a coupled enzyme assay was developed for high-throughput screening. The ENTPD5 reaction (UDP ➔ UMP + Pi) was coupled with uridine monophosphate kinase's (UMPK) reaction with UMP (UMP + ATP ➔ UDP + ADP) to create a futile catalytic cycle consuming ATP (Fig 3A). After one hour, the residual ATP was measured with firefly luciferase. UMPK concentrations were chosen to ensure ENTPD5, not UMPK, was rate-limiting. The ATP concentration was chosen to maximize signal with no ENTPD5 present, and the reaction time was optimized to remain in the linear range of the assay. Initial UDP concentration was chosen to allow for multiple turnover events on a single molecule in the cycle. Due to the availability of higher yields of the bacterially produced enzyme, B.ENTPD5 was used for HTS and subsequent structure activity relationship studies. 21,000 compounds were screened in duplicate at 20 μM. The average Z' value of the 132-plate screen was 0.73, indicating a robust assay. Five compounds producing >25% reproducible inhibition of ENTPD5 activity were selected for further analysis (0.02% hit rate) (Fig 3B and 3C).

[2] = molecular target: T2, I.ENTPD5 (Homo sapiens, UniProt O75356); experiment: Malachite Green (MG) assay for free phosphate; format: biochemical
T2 construct: His8 (C); made in house; host or cells: Hi-5 insect cells (baculovirus amplified in SF9)
T2 sequence (O75356 44-428): T1 sequence (O75356 44-428)
Method: Malachite Green (MG) assay for free phosphate was used to directly test ENTPD5 activity. Standard curves for each preparation of malachite green were generated using known amounts of free phosphate. Reactions were carried out at room temperature in 1-mL cuvettes and OD 630 nm measurements were performed on a Nanodrop 2000c. ENTPD5 assays were initiated by adding UDP (100 μM final concentration) to a cuvette containing 800 μL of ENTPD5 (10 ng) in reaction buffer (250 mM NaCl, 5 mM MgCl2, 25 mM Tris-HCl pH 8.5). After 5 minutes, the reaction was quenched with 200 μL of MG buffer (13.1% (v/v) Concentrated sulfuric acid, 2.64 mM malachite green, 1.4% (w/v) ammonium molybdate, and 0.17% (v/v) Tween 20) and mixed by pipet. The OD 630 nm was measured after an additional 5-minute incubation. IC50 values were calculated by GraphPad Prism 6 using sigmoidal interpolation model with 95% confidence intervals. Using I.ENTPD5, the five hits compounds were validated in the malachite green (MG) assay, which directly measures free phosphate, a product of ENTPD5 activity.

[3] = test system: O-glycan levels in LNCaP cells; experiment: Western blot for total O-glycosylation, LNCaP; format: cell-based; details: 10 μM, 24h, immunoblot
Method: (§1) LNCaP, DU145, PC3, and RWPE-1 cells were treated with 10 μM compound or DMSO control. 24h post-treatment, cells were washed with ice cold PBS, scraped, pelleted and stored at -80°C until use. Frozen cell pellets were lysed with lysis buffer consisting of 20 mM HEPES pH. 7.4, 150 mM NaCl, 1% Triton X-100, 1 mM EGTA, 1 mM EDTA, 10 mM sodium pyrophosphate, 100 mM NaF, 5 mM iodoacetic acid, 20 nM okadaic acid, 0.2 mM phenylmethylsulfonyl flouride (PMSF), and complete protease inhibitor cocktail tablets (Roche Diagnostics). Samples containing 50 μg of protein were suspended in SDS loading buffer, separated on 4–12% SDS polyacrylamide gels (GenScript #M41215) and electrotransferred to PVDF membranes (Millipore Immobilon-FL #IPFL00010). Precision Plus Protein Standards all blue (Bio-Rad 161–0373) were included as molecular weight markers. Immunoblotting was performed using standard methods, with TBS-T and TBS-T with 5% BSA as the wash and blocking/primary antibody dilution solutions, respectively. Total protein was measured with Ponceau-S staining prior to probing with antibodies. Membranes were incubated overnight at 4°C with primary antibodies diluted 1:1000 unless noted otherwise. […] Western blot quantification was normalized to total protein levels and analyzed in ImageStudio (LI-COR).

[4] = test system: LNCaP cells; experiment: Growth inhibition assay, LNCaP; format: cell-based; details: Homo sapiens, 48 h, 48h treatment, cell count normalized to DMSO
Method: LNCaP (ATCC CFL-1740), DU-145 (ATCC HTB-81), and PC3 (ATCC CRL-1435) cell lines were cultivated in a humid atmosphere (5% CO2, 37°C) using RPMI 1640 with L-glutamine (10-040-CV Corning) media supplemented with 10% FBS (SH30910.03 Hyclone) and 1x penicillin-streptomycin solution (Invitrogen). RWPE-1 (ATCC CRL-11609) was cultivated in a humid atmosphere (5% CO2, 37°C) using Keratinocyte Serum Free Medium (K-SFM Kit 17005–042 GIBCO) supplemented with bovine pituitary extract, epidermal growth factor (provided with K-SFM Kit), and 1x penicillin-streptomycin solution (Invitrogen). All cell lines were analyzed by STR (Short Tandem Repeat) and confirmed to match to corresponding STR profile data from the Global Bioresource Center ATCC or ExPASy Cellosaurus database. All cell lines were verified to be mycoplasma free.
5,000 cells were plated on day 0 in a 96-well plate. On day 1, before treatment, each well was imaged and direct cell counting was performed using a Celigo S (Nexcelom) imager and automatic cell counting software provided with the instrument. Compounds were added to final concentrations of 0.15 μM- 20 μM. 48 hours after treatment, wells were re-imaged and counted using the pre-treatment counting procedure. Growth was reported as the fold increase over the baseline measurement and normalized to DMSO controls. Experiments were performed in triplicate, in three separate experiments. […]

[5] = test system: O-glycan levels in DU145 cells; experiment: Western blot for total O-glycosylation, DU145; format: cell-based; details: DU145, 10 μM, 24h, immunoblot
Method: as §1

[6] = substrate UDP, purified I.ENTPD5, Michaelis-Menten

Row | inhibition at 20 µM [1] | IC50 [1] | Structure (SMILES) | other results
1 | 35% | 6.7 ± 0.7 µM | O=S(=O)(Nc1ccc(O)c(-c2c(O)ccc3ccccc23)c1)c1ccc(Cl)cc1 [Compound 2a] | inhibition of I.ENTPD5 (hit validation) ([2]; MG assay): dose-dependent inhibition
2 | 48% | 3.7 ± 0.4 µM | Cc1cc(C)c(C)c(S(=O)(=O)Nc2ccc(O)c(-c3c(O)ccc4ccccc34)c2)c1C [Compound 2b] | inhibition of I.ENTPD5 (hit validation) ([2]; MG assay): dose-dependent inhibition
3 |  | 6.8 ± 1 µM | O=S(=O)(Nc1ccc(O)c(-c2c(O)ccc3ccccc23)c1)c1ccccc1 [Compound 2c] | 
4 |  | 7.1 ± 1.6 µM | Cc1ccc(S(=O)(=O)Nc2ccc(O)c(-c3c(O)ccc4ccccc34)c2)cc1 [Compound 2d] | 
5 |  | 4.3 ± 2.2 µM | CCc1ccc(S(=O)(=O)Nc2ccc(O)c(-c3c(O)ccc4ccccc34)c2)cc1 [Compound 2e] | 
6 |  |  | CC(C)(C)c1ccc(S(=O)(=O)Nc2ccc(O)c(-c3c(O)ccc4ccccc34)c2)cc1 [Compound 2f] | O-glycan level [3]: inability of compound 2f to reduce O-glycan levels; EC50 [4]: > 10 µM; O-glycan level [5]: inability of compound 2f to reduce O-glycan levels; IC50 ([2]; MG assay, expanded concentration range, 100 μM UDP): 1.54 µM
7 |  | 8.3 ± 1 µM | O=S(=O)(Nc1ccc(O)c(-c2c(O)ccc3ccccc23)c1)c1ccc(Br)cc1 [Compound 2g] | 
8 |  | > 100 µM | Cc1ccc(S(=O)(=O)Nc2cc(-c3c(O)ccc4ccccc34)c(O)c3ccccc23)cc1 [Compound 2h] | 
9 |  | > 100 µM | O=S(=O)(Nc1cc(-c2c(O)ccc3ccccc23)c(O)c2ccccc12)c1ccc(Cl)cc1 [Compound 2i] | 
10 | 47% |  | CCC(=O)N1c2ccccc2C(N(C(=O)c2ccccc2)c2ccccc2)CC1C (stereo not drawn) [Compound 3] | 
11 | 28% |  | O=C1NC(c2ccccc2OCc2ccccc2)Nc2ccccc21 (stereo not drawn) [Compound 4] | inhibition of I.ENTPD5 (hit validation) ([2]; MG assay): dose-dependent inhibition
12 |  |  | O=c1ccn([C@@H]2O[C@H](COP(=O)(O)OP(=O)(O)O)[C@@H](O)[C@H]2O)c(=O)[nH]1 [UDP, reference compound] | Km [2, 6]: 480 ± 111 µM; kcat [2, 6]: 783 ± 68 s⁻¹
